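Growth conditions: 96-well plates. Treatment: test compound, 48 hours, 5 concentrations. Analysis: linear interpolation between bracketing concentrations; unreached endpoints set to highest concentration. Abbreviation: GI50, concentration required for 50% inhibition of growth.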 The source made the active and inactive calls. Cut-off read from the data, not from the text of the source: active = GI50 up to about 1.1 µM and inactive = higher.
Experiments:
Test in all cases: NCI anticancer screen, dose series, 48 h
LOX IMVI = test system: LOX IMVI
NCI/ADR-RES = test system: NCI/ADR-RES
786-0 = test system: 786-0
SK-MEL-28 = test system: SK-MEL-28
RXF 393 = test system: RXF 393
SNB-19 = test system: SNB-19
DU-145 = test system: DU-145
NCI-H226 = test system: NCI-H226
SNB-75 = test system: SNB-75
NCI-H23 = test system: NCI-H23
HCC 2998 = test system: HCC 2998
A549 = test system: A549
CCRF-CEM = test system: CCRF-CEM
KM12 = test system: KM12
ACHN = test system: ACHN
Malme-3M = test system: Malme-3M
OVCAR-8 = test system: OVCAR-8
NCI-H460 = test system: NCI-H460
Hs-578T = test system: Hs-578T
MDA-MB-231 = test system: MDA-MB-231
MDA-MB-435 = test system: MDA-MB-435
BT-549 = test system: BT-549
SF-268 = test system: SF-268
SW-620 = test system: SW-620
T47D = test system: T47D
UO-31 = test system: UO-31
MDA-N = test system: MDA-N
SF-295 = test system: SF-295
COLO 205 = test system: COLO 205
HOP-62 = test system: HOP-62
RPMI-8226 = test system: RPMI-8226
HCT-116 = test system: HCT-116
OVCAR-3 = test system: OVCAR-3
SF-539 = test system: SF-539
NCI-H522 = test system: NCI-H522
MCF7 = test system: MCF7
MOLT-4 = test system: MOLT-4
OVCAR-4 = test system: OVCAR-4
SK-MEL-5 = test system: SK-MEL-5
HT-29 = test system: HT-29
A498 = test system: A498
HCT-15 = test system: HCT-15
U-251 = test system: U-251
UACC-62 = test system: UACC-62
CAKI-1 = test system: CAKI-1
UACC-257 = test system: UACC-257
IGROV-1 = test system: IGROV-1
SK-MEL-2 = test system: SK-MEL-2
HL-60 = test system: HL-60
PC-3 = test system: PC-3
HOP-92 = test system: HOP-92
OVCAR-5 = test system: OVCAR-5
SK-OV-3 = test system: SK-OV-3
TK-10 = test system: TK-10
M14 = test system: M14
K562 = test system: K562
EKVX = test system: EKVX

For `O=C1C=C(O)C(=O)c2c(O)ccc(O)c21`, the GI50 (LOX IMVI) was > 100 µM (inactive), the GI50 (NCI/ADR-RES) was > 100 µM (inactive) and the GI50 (786-0) was > 100 µM (inactive). For the same molecule, the GI50 (SK-MEL-28) was > 100 µM (inactive), the GI50 (RXF 393) was > 100 µM (inactive) and the GI50 (SNB-19) was > 100 µM (inactive). For the same molecule, the GI50 (DU-145) was > 100 µM (inactive), the GI50 (NCI-H226) was > 100 µM (inactive) and the GI50 (SNB-75) was > 100 µM (inactive). For the same molecule, the GI50 (NCI-H23) was > 100 µM (inactive), the GI50 (HCC 2998) was > 100 µM (inactive) and the GI50 (A549) was > 100 µM (inactive). The GI50 (CCRF-CEM) was > 100 µM (inactive), the GI50 (KM12) was > 100 µM (inactive) and the GI50 (ACHN) was > 100 µM (inactive). For the same molecule, the GI50 (Malme-3M) was 88.5 µM (inactive), the GI50 (OVCAR-8) was > 100 µM (inactive) and the GI50 (NCI-H460) was > 100 µM (inactive). The GI50 (Hs-578T) was > 100 µM (inactive), the GI50 (MDA-MB-231) was > 100 µM (inactive) and the GI50 (MDA-MB-435) was > 100 µM (inactive). The GI50 (BT-549) was > 100 µM (inactive), the GI50 (SF-268) was > 100 µM (inactive) and the GI50 (SW-620) was > 100 µM (inactive). For the same molecule, the GI50 (T47D) was > 100 µM (inactive), the GI50 (UO-31) was > 100 µM (inactive) and the GI50 (MDA-N) was > 100 µM (inactive). The GI50 (SF-295) was > 100 µM (inactive), the GI50 (COLO 205) was 92 µM (inactive) and the GI50 (HOP-62) was > 100 µM (inactive). For the same molecule, the GI50 (RPMI-8226) was > 100 µM (inactive), the GI50 (HCT-116) was > 100 µM (inactive) and the GI50 (OVCAR-3) was > 100 µM (inactive). The GI50 (SF-539) was > 100 µM (inactive), the GI50 (NCI-H522) was > 100 µM (inactive) and the GI50 (MCF7) was > 100 µM (inactive). The GI50 (MOLT-4) was > 100 µM (inactive), the GI50 (OVCAR-4) was > 100 µM (inactive) and the GI50 (SK-MEL-5) was > 100 µM (inactive). For the same molecule, the GI50 (HT-29) was 51.9 µM (inactive), the GI50 (A498) was > 100 µM (inactive) and the GI50 (HCT-15) was greater than 100 µM. The GI50 (U-251) was > 100 µM (inactive), the GI50 (UACC-62) was > 100 µM (inactive) and the GI50 (CAKI-1) was > 100 µM (inactive). The GI50 (UACC-257) was > 100 µM (inactive), the GI50 (IGROV-1) was > 100 µM (inactive) and the GI50 (SK-MEL-2) was > 100 µM (inactive). For the same molecule, the GI50 (HL-60) was 58.5 µM (inactive), the GI50 (PC-3) was > 100 µM (inactive) and the GI50 (HOP-92) was > 100 µM (inactive). For the same molecule, the GI50 (OVCAR-5) was > 100 µM (inactive), the GI50 (SK-OV-3) was > 100 µM (inactive) and the GI50 (TK-10) was > 100 µM (inactive). The GI50 (M14) was > 100 µM (inactive) and the GI50 (K562) was > 100 µM (inactive).
With `NC(=O)c1sc2nc3ccccc3n2c1N` the GI50 (LOX IMVI) was 36.1 µM (inactive), the GI50 (NCI/ADR-RES) was > 100 µM (inactive) and the GI50 (786-0) was 40 µM (inactive). For the same molecule, the GI50 (SK-MEL-28) was > 100 µM (inactive), the GI50 (RXF 393) was 21.1 µM (inactive) and the GI50 (SNB-19) was 51.8 µM (inactive). The GI50 (DU-145) was 84.9 µM (inactive), the GI50 (NCI-H226) was > 100 µM (inactive) and the GI50 (SNB-75) was 29.4 µM (inactive). For the same molecule, the GI50 (NCI-H23) was 17.4 µM (inactive), the GI50 (HCC 2998) was 86.7 µM (inactive) and the GI50 (A549) was > 100 µM (inactive). For the same molecule, the GI50 (CCRF-CEM) was > 100 µM (inactive), the GI50 (ACHN) was 59.8 µM (inactive) and the GI50 (Malme-3M) was > 100 µM (inactive). The GI50 (OVCAR-8) was 65.8 µM (inactive), the GI50 (Hs-578T) was 46 µM (inactive) and the GI50 (MDA-MB-231) was 24.9 µM (inactive). The GI50 (MDA-MB-435) was > 100 µM (inactive), the GI50 (BT-549) was 14.4 µM (inactive) and the GI50 (SF-268) was 47.2 µM (inactive). For the same molecule, the GI50 (SW-620) was > 100 µM (inactive), the GI50 (T47D) was > 100 µM (inactive) and the GI50 (UO-31) was > 100 µM (inactive). The GI50 (MDA-N) was > 100 µM (inactive), the GI50 (SF-295) was 23.8 µM (inactive) and the GI50 (COLO 205) was > 100 µM (inactive). For the same molecule, the GI50 (HOP-62) was 32.8 µM (inactive), the GI50 (RPMI-8226) was > 100 µM (inactive) and the GI50 (HCT-116) was 74.1 µM (inactive). The GI50 (OVCAR-3) was > 100 µM (inactive), the GI50 (SF-539) was 21.5 µM (inactive) and the GI50 (MCF7) was > 100 µM (inactive). The GI50 (EKVX) was 67.5 µM (inactive), the GI50 (MOLT-4) was > 100 µM (inactive) and the GI50 (OVCAR-4) was > 100 µM (inactive). The GI50 (SK-MEL-5) was > 100 µM (inactive), the GI50 (HT-29) was > 100 µM (inactive) and the GI50 (A498) was 63.1 µM (inactive). For the same molecule, the GI50 (HCT-15) was greater than 100 µM, the GI50 (U-251) was 28.2 µM (inactive) and the GI50 (UACC-62) was 20 µM (inactive). For the same molecule, the GI50 (CAKI-1) was 92.7 µM (inactive), the GI50 (UACC-257) was > 100 µM (inactive) and the GI50 (IGROV-1) was 51.5 µM (inactive). The GI50 (SK-MEL-2) was 30.2 µM (inactive), the GI50 (HL-60) was > 100 µM (inactive) and the GI50 (PC-3) was > 100 µM (inactive). For the same molecule, the GI50 (HOP-92) was 69.8 µM (inactive), the GI50 (OVCAR-5) was > 100 µM (inactive) and the GI50 (SK-OV-3) was 27.2 µM (inactive). For the same molecule, the GI50 (TK-10) was 42.7 µM (inactive) and the GI50 (M14) was > 100 µM (inactive).
